# Test results: patent publication US5350748A, “3-thio or amino substituted-benzo[b]thiophene-2-carboxamides and 3-oxygen, thio, or amino substituted-benzofuran-2-carboxamides as inhibitors of cell adhesion” (Warner-Lambert Company, priority 1993, dated 1994)
# pIC50: −log10 of the molar value.
# Key:
# [1] = tested on: HIV-1 activation in OM-10.1 cells; details: poster NCDDG/AIDS, San Diego, 1991; some 48 compounds evaluated; cited from earlier work
# [2] = tested on: human neutrophil adhesion to TNF-α-stimulated human umbilical vein endothelial cells (HUVEC); assay: Inhibition of human neutrophil adhesion to TNF-α-stimulated human umbilical vein endothelial cells (51Cr-labeled neutrophils); format: cell-based; details: neutrophils labeled with Cr, read-out: Adhesion ECA, % inhibition
# Description: (§1) The 3-thiol, thioether, amino, alkylamino, or arylamino-benzo[b]thiophene-2-carboxamides and 3-alkoxy, aryloxy, thiol, thioether, amino, alkylamino, or arylamino-benzofuran-2-carboxamides have been shown in an in vitro assay to prevent the adhesion of neutrophils to human umbilical vein endothelial cells (HUVECS) stimulated with TNF-α. In this assay, HUVECS are stimulated with TNF-α for 4 hours, after which the cells are assayed for their ability to adhere to human neutrophils labeled with either ^51 Cr or calcein, a fluorescent dye. The details of this assay are described in the DETAILED DESCRIPTION.
# Method for Determining the Inhibition of Human Neutrophil Adhesion to TNF-α, IL-1α, and LPS-Stimulated Human Umbilical Vein Endothelial Cells
# (§2) Neutrophils were isolated from anticoagulant-treated venous blood obtained from healthy human volunteers according to the method of Ferrante and Thong [J. Immunol. Methods 24, 389-93 (1978)]. The cell preparations consisted of greater than 98% neutrophils.
# Second passage human umbilical vein endothelial cells (HUVEC) (Clonetics, San Diego, Calif.) were seeded into Falcon 24-well cell culture plates (Becton Dickinson, Lincoln Park, N.J.) at approximately 2×10^4 cells per well. The cells were grown to confluent monolayers in endothelial basal medium (EBM, Clonetics) supplemented with 5% fetal calf serum (Hyclone Laboratories, Logan, Utah), 10 ng/mL EGF, 1 μg/mL hydrocortisone, 0.4% bovine brain extract (Clonetics) in 5% CO2 at 37° C.
# Neutrophils (30×10^6) were labeled for 60 minutes at 37° C. with 100 μCi Na^51 CrO4 (ICN Biomedicals, Costa Mesa, Calif.) in 2.0 mL Ca^2+ - and Mg^2+ -free Hanks' balanced salt solution (HBSS, GIBCO Laboratories, Grand Island, N.Y.). […]
# Stimulation of HUVEC with tumor necrosis factor-α (TNF-α) (Genzyme, Cambridge, Mass.), interleukin (IL-1α) (Genzyme) or E. coli 0111: B4 lipopolysaccharide (LPS) (Sigma) in the presence or absence of drug was initiated 4 hours prior to the addition of neutrophils. […] Lysates were collected and the radioactivity in each well was determined by gamma ray spectroscopy.
# [3] = tested on: HIV-1 activation in OM-10.1 cells; assay: Inhibition of activation of latent HIV-1 in chronically infected OM-10.1 cells; format: cell-based; details: Human immunodeficiency virus 1
# Description: The cellular pathways involved in mediating the activating signal from the plasma membrane to the integrated virus, resulting in HIV-1 expression, are much less clear. Recently, the development of a reliable and simple system for evaluating compounds that could prevent activation of latent HIV was reported at the National […] (NCDDG)/AIDS by P. Feorino, S. T. Butera, T. M. Folks, and R. F. Schinazi, San Diego, Calif., Nov. 3-7, 1991. The assay system employed the OM-10.1 cell line, a unique chronically-infected promyelocytic clone which remains CD4+ until HIV-1 activation with tumor necrosis factor-α. The expression of CD4+ on the cell surface and the activity of reverse transcriptase are used as markers for quantitating viral expression. Alternatively, other HIV markers, such as protease activity, which are known to those of skill in the art can be used. OM-10.1 cells remain CD4^+ until viral activation and respond to tumor necrosis factor induction, and therefore, these cultures are used to conveniently and rapidly examine pharmacologics for an ability to prevent CD4^+ down modulation (decrease in expression of CD4^+ on the cell surface) and HIV-1 expression.
# A variety of compounds known to have antiviral properties against either acutely or chronically infected cells were evaluated for their ability to inhibit HIV expression in these OM-10.1 cells. […]
# [4] = tested on: human neutrophil adhesion to TNF-α-stimulated human umbilical vein endothelial cells (HUVEC); assay: Modified method: inhibition of human neutrophil adhesion to TNF-α-stimulated human umbilical vein endothelial cells (calcein-labeled neutrophils); format: cell-based; details: footnote a, neutrophil label not given, IC50 by linear regression from 33.3, 10.0, 3.3 and 1.0 μM, read-out: Adhesion ECA, IC50
# Description: as §1, §2
# Modified Method for Determining the Inhibition of Human Neutrophil Adhesion to TNF-α, IL-1α, and LPS Stimulated Human Umbilical Vein Endothelial Cells
# The previous assay using ^51 Cr labeled human neutrophils has been modified. The neutrophils are now labeled with the fluorescent dye calcein. The current method allows for quantification of neutrophil adherence by fluorescence spectroscopy.
# Second passage HUVEC (Clonetics Corporation, San Diego, Calif., CC-2617) were seeded into Coring (Corning glass works, Corning, N.Y.) 96-well cell culture plates at approximately 5×10^3 cells/well and grown to confluency in supplemented endothelial basal medium (EBM, MCDB-131, Clonetics, 10 ng/mL EGF, 1 μg/mL hydrocortisone, 0.4% bovine brain extract, 5% Fetal Bovine Serum). One day prior to running the assay, typically 3 days postseeding, the cultures were refed with 0.2 mL/well supplemented EBM (S-EBM).
# Test compounds were prepared as 10 mL stock solutions at a concentration of 1.0 mM. The compounds were initially solubilized in 0.1 mL DMSO followed by the addition of 9.9 mL S-EBM. The drug preparations were then diluted in one step to a concentration of 66.6 μM or 200 μM. Solubilizations and dilutions were performed in polystyrene containers.
# Recombinant human tumor necrosis factor-α (TNF, Genzyme, Boston, Mass., code TNF-H) was prepared at 400 U/mL in S-EBM. Stock TNF was prepared to 20,000 U/mL in Delbecco's phosphate-buffered saline (PBS, Gibco, Grand Island N.Y.) plus 0.1% BSA and stored at -70° C. HUVEC were washed one time with 0.2 mL warm unsupplemented EBM and then stimulated for 4hours at 37° C. with 200 U/mL TNF in the presence of 33.3 μM or 100 μM test compound. This was accomplished by adding 0.1 mL of 400 U/mL TNF and 0.1 mL 66.6 μM or 0.1 mL of 200 μM test compound. These additions were done slowly as to not disrupt the HUVEC monolayer. Each compound was tested in six wells. Unstimulated (vehicle control) and TNF-stimulated without test compound treatments were also run in each plate.
# One hour prior to adding the neutrophils (isolated as previously described) to the HUVEC, neutrophils (5×10^6 /mL) were labeled for 30 minutes at 37° C. with 5 μM calcine-AM (Molecular Probes, Eugene, Oreg.) in Hanks' balanced salt solution plus 0.45% BSA. Stock calcein was prepared to 5mM in anhydrous DMSO and stored desiccated at -20° C. At the end of the incubation the cells were washed two times in cold HBSS and resuspended to a final concentration of 1×10^6 cells/mL in unsupplemented EBM.
# At the end of the 4-hour stimulation and immediately prior to the addition of the neutrophils to the HUVEC monolayer, the plates were washed with 0.2 ml warm unsupplemented EBM to remove TNF and drug. Neutrophils (1×10^5 cells) were slowly added to each of the treated wells and incubated for 30 minutes at 37° C. At the end of the incubation the plates were washed two times with 0.2 mL warm unsupplemented EBM followed by a final addition of 0.1 mL for plate scanning.
# The fluorescence was determined using a Millipore Cytofluor 2300 system (excitation=480, emission=530, sensitivity=4). […]
Compound,inhibition of activation of HIV-1 in OM-10.1 cells [1],inhibition at 100 µM [2] [%],further results
CC(=O)N(O)CCCCCNC(=O)CCC(=O)N(O)CCCCCNC(=O)CCC(=O)N(O)CCCCCN [desferrioxamine],modest inhibitors of the activation of HIV-1,–,–
"CC(C)Sc1c(C(N)=O)sc2ccccc12 [Example 2, 3-[(1-Methylethyl)thio]benzo[b]thiophene-2-carboxamide]",–,34,–
"COc1ccc2sc(C(N)=O)c(SC)c2c1 [Example 4, 5-Methoxy-3-(methylthio)benzo[b]thiophene-2-carboxamide]",–,81,–
"Cc1cn([C@H]2C[C@H](F)[C@@H](CO)O2)c(=O)[nH]c1=O [3'-fluoro-3'-deoxythymidine (FLT), 3'-fluoro-3'-deoxythymidine]",modest inhibitors of the activation of HIV-1,–,–
"COc1ccc2sc(C(N)=O)c(Sc3ccccc3)c2c1 [Example 5, 5-Methoxy-3-(phenylthio)benzo[b]thiophene-2-carboxamide]",–,48,–
"COc1ccc2sc(C(N)=O)c(SC(C)C)c2c1 [Example 1, 5-Methoxy-3-[(1-methylethyl)thio]benzo[b]thiophene-2-carboxamide]",–,–,pIC50 [3]: 6.40; pIC50 [4]: 4.93
"interferon Y: interferon Y, considered modest inhibitor of the activation of HIV-1 (probably interferon gamma)",modest inhibitors of the activation of HIV-1,–,–
